Experimental data as given in the NIST ThermoML archive (doi:10.1016/j.tca.2015.03.026).
Values joined by “and” are separate entries in the source; they are usually repeats but may differ in a detail not shown here. Identical values can stand only once.

Key:
[1] = for Normal melting temperature: DTA
[2] = Molar enthalpy of transition or fusion; conditions: Crystal; DSC

COc1ccccc1C(=O)O [2-methoxybenzoic acid]
[1]
Conditions | vapor or sublimation pressure
318.25 K, Crystal, Closed cell (Static) method | 6.16e-05 kPa
320.73 K, Crystal, Closed cell (Static) method | 8.28e-05 kPa
323.21 K, Crystal, Closed cell (Static) method | 0.0001133 kPa
325.68 K, Crystal, Closed cell (Static) method | 0.0001504 kPa
328.17 K, Crystal, Closed cell (Static) method | 0.0002043 kPa
330.65 K, Crystal, Closed cell (Static) method | 0.0002676 kPa
333.12 K, Crystal, Closed cell (Static) method | 0.0003567 kPa
335.61 K, Crystal, Closed cell (Static) method | 0.0004802 kPa
335.62 K, Crystal, Closed cell (Static) method | 0.0004752 kPa
338.08 K, Crystal, Closed cell (Static) method | 0.0006182 kPa
340.58 K, Crystal, Closed cell (Static) method | 0.000822 kPa and 0.0008262 kPa
343.05 K, Crystal, Closed cell (Static) method | 0.001076 kPa
344.3 K, Crystal, Transpiration method | 0.00121 kPa
345.3 K, Crystal, Transpiration method | 0.00133 kPa
345.4 K, Crystal, Transpiration method | 0.00133 kPa
345.54 K, Crystal, Closed cell (Static) method | 0.001402 kPa
346.4 K, Crystal, Transpiration method | 0.0015 kPa
347.2 K, Crystal, Transpiration method | 0.00163 kPa
347.4 K, Crystal, Transpiration method | 0.00164 kPa
348.02 K, Crystal, Closed cell (Static) method | 0.001813 kPa
348.34 K, Crystal, Closed cell (Static) method | 0.001883 kPa
348.4 K, Crystal, Transpiration method | 0.00179 kPa
349.2 K, Crystal, Transpiration method | 0.00196 kPa
350.4 K, Crystal, Transpiration method | 0.0023 kPa
350.5 K, Crystal, Closed cell (Static) method | 0.002351 kPa
350.82 K, Crystal, Closed cell (Static) method | 0.002438 kPa
352.4 K, Crystal, Transpiration method | 0.00275 kPa
353.3 K, Crystal, Closed cell (Static) method | 0.003074 kPa
353.5 K, Crystal, Transpiration method | 0.00317 kPa
354.5 K, Crystal, Transpiration method | 0.00349 kPa
355.5 K, Crystal, Transpiration method | 0.00377 kPa
355.78 K, Crystal, Closed cell (Static) method | 0.003984 kPa
356.5 K, Crystal, Transpiration method | 0.00408 kPa
357.6 K, Crystal, Transpiration method | 0.00472 kPa
358.26 K, Crystal, Closed cell (Static) method | 0.005029 kPa
358.4 K, Crystal, Transpiration method | 0.00508 kPa
359.5 K, Crystal, Transpiration method | 0.00566 kPa
360.5 K, Crystal, Transpiration method | 0.00637 kPa
360.75 K, Crystal, Closed cell (Static) method | 0.006481 kPa
361.6 K, Crystal, Transpiration method | 0.00677 kPa
362.5 K, Crystal, Transpiration method | 0.00755 kPa
363.23 K, Crystal, Closed cell (Static) method | 0.008104 kPa
363.6 K, Crystal, Transpiration method | 0.00827 kPa
364.5 K, Crystal, Transpiration method | 0.00908 kPa
365.71 K, Crystal, Closed cell (Static) method | 0.01039 kPa
366.4 K, Crystal, Transpiration method | 0.0107 kPa
366.6 K, Crystal, Transpiration method | 0.01098 kPa
368.19 K, Crystal, Closed cell (Static) method | 0.01325 kPa
368.6 K, Crystal, Transpiration method | 0.01323 kPa
369.6 K, Crystal, Transpiration method | 0.01454 kPa
378.32 K, Liquid, Closed cell (Static) method | 0.0318 kPa
378.33 K, Liquid, Closed cell (Static) method | 0.0318 kPa
380.81 K, Liquid, Closed cell (Static) method | 0.0371 kPa
380.82 K, Liquid, Closed cell (Static) method | 0.0371 kPa
383.29 K, Liquid, Closed cell (Static) method | 0.0435 kPa
383.32 K, Liquid, Closed cell (Static) method | 0.0435 kPa
385.78 K, Liquid, Closed cell (Static) method | 0.0507 kPa and 0.0504 kPa
388.26 K, Liquid, Closed cell (Static) method | 0.0588 kPa
388.29 K, Liquid, Closed cell (Static) method | 0.0585 kPa
390.97 K, Liquid, Closed cell (Static) method | 0.0691 kPa
390.98 K, Liquid, Closed cell (Static) method | 0.0695 kPa
393.47 K, Liquid, Closed cell (Static) method | 0.0797 kPa and 0.0801 kPa
395.94 K, Liquid, Closed cell (Static) method | 0.0929 kPa
395.95 K, Liquid, Closed cell (Static) method | 0.0933 kPa
398.44 K, Liquid, Closed cell (Static) method | 0.1072 kPa and 0.1071 kPa
400.91 K, Liquid, Closed cell (Static) method | 0.1239 kPa
400.94 K, Liquid, Closed cell (Static) method | 0.1244 kPa
403.41 K, Liquid, Closed cell (Static) method | 0.1413 kPa
403.44 K, Liquid, Closed cell (Static) method | 0.1428 kPa
405.88 K, Liquid, Closed cell (Static) method | 0.1621 kPa
405.89 K, Liquid, Closed cell (Static) method | 0.1621 kPa
408.38 K, Liquid, Closed cell (Static) method | 0.1849 kPa
408.39 K, Liquid, Closed cell (Static) method | 0.1865 kPa
410.85 K, Liquid, Closed cell (Static) method | 0.2113 kPa
410.87 K, Liquid, Closed cell (Static) method | 0.2131 kPa
413.34 K, Liquid, Closed cell (Static) method | 0.2389 kPa
413.38 K, Liquid, Closed cell (Static) method | 0.242 kPa

Conditions | Normal melting temperature [°C]
[1], Crystal | 101.6

Conditions | Molar enthalpy of transition or fusion [kcal/mol]
[2] | 5.71

Cc1ccccc1C(=O)O [2-methylbenzoic acid]
[1], Crystal, Transpiration method
Conditions | vapor or sublimation pressure [kPa]
331.2 K | 0.0028
335.2 K | 0.00421
341.2 K | 0.00767
345.2 K | 0.0112
348.2 K | 0.01564
351.2 K | 0.01962
355.4 K | 0.02895
358.6 K | 0.0389
358.7 K | 0.03932
361.2 K | 0.05138
364.2 K | 0.06664
367.4 K | 0.08391
373 K | 0.1339

COc1cccc(C(=O)O)c1 [3-methoxybenzoic acid]
Conditions | Normal melting temperature [°C]
[1], Crystal | 109.0

Conditions | Molar enthalpy of transition or fusion [kcal/mol]
[2] | 5.23

COc1ccc(C(=O)O)cc1 [4-methoxybenzoic acid]
[1], Crystal, Transpiration method
Conditions | vapor or sublimation pressure [kPa]
363.3 K | 0.00117
368.2 K | 0.0019
374.9 K | 0.00353
383.2 K | 0.00753
384.5 K | 0.0085
388.3 K | 0.01217
391.1 K | 0.01556
394.2 K | 0.01971
397.2 K | 0.0267
400.3 K | 0.03247
403.4 K | 0.04422
406.2 K | 0.05311

Cc1ccc(C(=O)O)cc1 [4-methylbenzoic acid]
[1], Crystal, Transpiration method
Conditions | vapor or sublimation pressure [kPa]
340.4 K | 0.00123
343.3 K | 0.00162
348.5 K | 0.00271
356.7 K | 0.00558
359.3 K | 0.00715
363.9 K | 0.01097
368.5 K | 0.01623
373.7 K | 0.02473
374.4 K | 0.02687
378.8 K | 0.03813
380.1 K | 0.04273
384.4 K | 0.05807
389.2 K | 0.08453
394 K | 0.1213
398.8 K | 0.1748

Conditions | Normal melting temperature [°C]
[1], Crystal | 180.2

Conditions | Molar enthalpy of transition or fusion [kcal/mol]
[2] | 5.33

O=C(O)c1ccccc1 [benzoic acid]
[1], Crystal
Conditions | vapor or sublimation pressure [kPa]
297.67 K, Closed cell (Static) method | 0.000108
299.96 K, Closed cell (Static) method | 0.000142
300.03 K, Closed cell (Static) method | 0.000143
302.51 K, Closed cell (Static) method | 0.000193
304.75 K, Closed cell (Static) method | 0.00025
307.27 K, Closed cell (Static) method | 0.000335
309.63 K, Closed cell (Static) method | 0.000436
312.08 K, Closed cell (Static) method | 0.000573
314.4 K, Closed cell (Static) method | 0.000738
314.59 K, Closed cell (Static) method | 0.000754
316.3 K, Transpiration method | 0.00095
316.91 K, Closed cell (Static) method | 0.000969
319.48 K, Closed cell (Static) method | 0.00127
320.4 K, Transpiration method | 0.00147
321.91 K, Closed cell (Static) method | 0.00164
324 K, Transpiration method | 0.00214
324.39 K, Closed cell (Static) method | 0.00212
326.76 K, Closed cell (Static) method | 0.00268
327.4 K, Transpiration method | 0.00302
329.2 K, Closed cell (Static) method | 0.00343
331.62 K, Closed cell (Static) method | 0.00436
332.4 K, Transpiration method | 0.00495
334.07 K, Closed cell (Static) method | 0.00554
336.46 K, Closed cell (Static) method | 0.00693
337.4 K, Transpiration method | 0.00809
338.98 K, Closed cell (Static) method | 0.00873
342.3 K, Transpiration method | 0.01272
347.3 K, Transpiration method | 0.01965
352.4 K, Transpiration method | 0.03114
357.4 K, Transpiration method | 0.04619
362.5 K, Transpiration method | 0.06987
367.5 K, Transpiration method | 0.1076
